# Conditions: buffer; pH 7.4; 200.0 µM
row,SMILES,solubility kinetic [µg/mL]
1,CC(=O)c1cccc(NCC(=O)c2ccc(C)c([N+](=O)[O-])c2)c1,13.7
2,O=C1C(c2ccccc2)NC(=S)N1C1CCCCC1 (configuration not stated),2.4
3,CN(Cc1ccccc1)C(=O)COC(=O)c1ccc(Cl)cc1N,2.4
4,C/C(=N\O)c1oc2ccc3c(C)cc(=O)oc3c2c1C,< 0.6
5,CC(NC(=O)CNC(=O)C1CCCCC1)c1cccc(Cl)c1 (configuration not stated),42.6
6,Oc1ccc(Nc2nc(-c3ccccc3F)nc3ccccc23)cc1,1.4
7,Clc1cccc(CN2CCSCC2)c1Cl,1
8,COc1ccc(CC(=O)NCC2CCCCC2)cc1OC,> 43.7
9,COC(=O)c1ccc(C(=O)O)nc1,21.5
10,C=Cn1cc[n+](CC(=O)c2ccc(Cl)cc2)c1.[Br-],43.3
11,O=C(CCNC(=O)c1ccc(Cl)cc1)Nc1ncccc1O,45
12,CCCCn1c(=O)c(C(C)=O)c(O)c2ccccc21,26.6
13,CC(C)C(=O)NC(=S)Nc1c(Cl)ccc2nsnc12,40.1
14,Cc1ccc(Nc2c([N+](=O)[O-])c(=O)oc3ccccc23)cc1,5.8
15,Nc1nc2c(ncn2C2C[C@H](O)[C@@H](CO)O2)c(=O)[nH]1 (some centres not stated),> 40.1
16,O=C(/C=C/c1cccc(F)c1)Nc1cc(S(=O)(=O)N2CCOCC2)ccc1Cl,6.3
17,O=C(NC(=S)Nc1ccccc1C(=O)O)c1ccc2ccccc2c1,38.2
18,CCc1nc(Nc2ccc(F)cc2)c2oc3ccccc3c2n1.Cl,0.8
19,CC(=O)c1nc2ccccc2n1CCc1ccccc1,27.5
20,CN(C)CCCNc1nc(N)c([N+](=O)[O-])c(NC2CCCCC2)n1,> 50.6
21,O=C(CN1C(=O)c2ccccc2S1(=O)=O)Nc1cccc(S(=O)(=O)N2CCCCC2)c1,34.4
22,COc1ccc2[nH]c(=O)c(CNc3ccc(C)cc3C)cc2c1,41.5
23,Cn1c(=O)c(C(=O)NCCCc2ccccc2)c(O)c2ccccc21,< 0.4
24,Cc1ccc(S(=O)(=O)NCc2ccccn2)c(C)c1C,43.2

# Results, then the compound that gave them:
row,solubility kinetic [µg/mL],SMILES
1,10.6,O=C(NC1CCCCCC1)C(Cc1ccccc1)n1cccc1 (configuration not stated)
2,43.2,O=S(=O)(NCc1ccc(Cl)cc1)c1cccc2cccnc12
3,> 42.8,N#C/C(=C\c1ccc(OCC(N)=O)cc1)C(=O)NC1CC1
4,0.5,CCn1c(C)c(C)c2cc(C(=O)NC3CCCCCC3)ccc21
5,3.9,COc1ccccc1N(CCOc1ccccc1)S(=O)(=O)c1ccccc1
6,1.4,COc1ccc(Nc2nc(N)c(C(=O)c3ccc(OC)cc3)s2)cc1
7,> 43.7,COCCNC(=O)COC(=O)C1=Cc2ccccc2OC1
8,< 0.2,CC(C)(C)c1cc(NC(=O)Nc2ccc(Cl)cc2Cl)no1
9,> 44.5,CCN1CCN(C(=O)CSc2nc(N)cc(N)n2)CC1
10,> 46,O=C(NCCCNC(=O)c1ccco1)c1ccc(Cl)cc1
11,> 43.5,CC(=O)Nc1ccc(C(=O)OCC(=O)N2CCCC2)cc1
12,> 25.8,CC1=[N+]([O-])C(C)(C)N(O)C1(C)C
13,> 45.8,CC1CCC(NC(=O)Cn2cnc3sccc3c2=O)CC1 (configuration not stated)
14,36.5,CN(C(=O)CCN1C(=O)c2ccccc2C1=O)c1ccccc1
15,22.8,c1ccc(CCNCCOc2ccccc2)cc1
16,7.2,Cc1ccc(Cl)cc1NC(=O)COC(=O)CSc1ccccc1
17,11.1,CCN(CC)S(=O)(=O)c1cccc(-c2cn3cccnc3n2)c1
18,7.5,O=C(COc1ccc([N+](=O)[O-])cc1Cl)Nc1ccc2[nH]c(=O)[nH]c2c1
19,42,COc1ccc(C(=O)c2c[nH]c(C(=O)N=CN(C)C)c2)cc1
20,> 36,Cc1cc(=O)c2c([nH]1)c(C)cc1[nH]c(C)c(C)c12
21,> 47.9,COC(=O)c1ccc(OCC(=O)NC2CCCCCCC2)cc1
22,> 50.3,CCCCN(C)C1CCN(C(=S)Nc2ccc(OC)cc2)CC1
23,> 41.5,CCOc1cc(/C=N/NC(=O)C2CCCC2)ccc1O
